According to PMC11378297, “Discovery and Profiling of New Multimodal Phenylglycinamide Derivatives as Potent Antiseizure and Antinociceptive Drug Candidates” (ACS Chemical Neuroscience, 2024):

How the values were obtained:
[1] = tested on: REDs in the medial entorhinal cortex of brain slices from kainate-treated rats; test: spontaneous recurrent epileptiform discharges (REDs) in brain slices of KA-rats; set-up: species or system rat; details: 40, 80 and 120 μM, 20 min bath exposure
Method: The effects of (R)-32 on spontaneous recurrent epileptiform discharges (REDs) recorded in the medial entorhinal cortex of a brain slices obtained from rats that had previously experienced kainate-induced status epilepticus (KA-rats) were evaluated at 40, 80, and 120 μM. […] Finally, the average duration, frequency, and amplitude of REDs after a 20 min exposure, and normalized to baseline measurements, is illustrated in Figure 4C for 40, 80, and 120 μM (R)-32. […] Accordingly, no EC50 quantifications were performed.
Figure 4 (R)-32 fails to affect REDs (recurrent epileptiform discharges) at any concentrations tested. (A) Representative traces of REDs recorded before (baseline), in the presence of 80 μM (R)-32, and 20 min after washout. […]
Evaluation of spontaneous recurrent electrographic discharges (REDs) from the medial entorhinal cortex in acute brain slices obtained from Sprague–Dawley rats that had previously experienced kainate-induced status epilepticus (KA-rats) were performed as previously described (West et al., 2018).[90] […] Extracellular field excitatory postsynaptic potentials (fEPSPs) were then recorded from layer II of the medial entorhinal cortex from 8 brain slices simultaneously. Spontaneous REDs were recorded for a 20 min baseline period. […] Data were acquired using pClamp 10.4.2 and analyzed using the included clampfit 10.4 software. […]

[2] = tested on: glutamate and GABA concentrations in brain; test: glutamate and GABA concentrations in hippocampus and cortex of PTZ-kindled mice; assay type: in vivo, mouse
Description: After behavioral tests (FST, PTZ-induced kindling), we determined the changes in glutamate and GABA concentrations in the hippocampus and cortex. Since exposure to the FST can evoke various neurochemical alterations, two additional groups were employed in this experiment, i.e., control nonkindled mice that were exposed to the FST and naïve mice. No marked differences in both glutamate and GABA concentrations in the hippocampus were observed (Figure 5A). […] We found a significant increase in glutamate concentration in the cortex of mice subjected to the FST (p < 0.05 vs naive mice). […] Given that seizures are typically accompanied by elevated extracellular glutamate levels (an excitatory neurotransmitter), a decreased glutamate concentration in the cortex of kindled animals may appear to be an unexpected outcome. It should be highlighted, however, that the concentrations of glutamate and GABA in tissue homogenates rather than dialysate were measured in brain samples acquired 24 h following the previous PTZ dose, which may have an impact on the outcomes. On the other hand, decreased glutamate levels could be caused by the up-regulation of glutamate transporters, as the expression of glutamate transporters can increase following seizures.[48] For example, an increased expression of hippocampal GLT-1 was observed 24 h after kainic acid-induced status epilepticus in mice and PTZ-induced kindling in rats.[49] Moreover, similar to our findings, Szyndler et al.([50]) found decreased glutamate concentrations, with no changes in GABA concentrations, in homogenates of the hippocampus, striatum, and prefrontal cortex of PTZ-kindled rats.
Figure 5 Changes in glutamate and GABA concentrations in the hippocampus (A) and cortex (B). Data are shown as means + SD (n = 9–14 animals). Statistical significance was evaluated by one-way ANOVA followed by Tukey’s post hoc test: *p < 0.05, **p < 0.01, ***p < 0.001 (GraphPad Prism 8.4.3).
GABA and glutamate concentrations were determined using liquid chromatography tandem mass spectrometry (LC-MS/MS) in the mouse prefrontal cortex and hippocampus. Toronto Research Chemicals Inc. was the source of the standards for both analytes (Toronto, ON, Canada). GABA and glutamate stock standard solutions were made in methanol and deionized water, respectively, and kept cold at 4 °C. The stock solutions were suitably diluted to create a range of solution combinations with the appropriate concentrations. Prior to analysis, a hand-held pestle and glass tube homogenizer (Potter–Elvehjem PTFE pestle and glass tube, Sigma-Aldrich, St. Louis, MO, USA) were used to homogenize mouse brains in distilled water at a ratio of 50 μL/mg. Following a 10 min centrifugation at 8000g for 10 min at 4 °C, homogenates were diluted 10 times with 0.1% formic acid in MeCN from the supernatant. Samples (10 μL) were deproteinized with 80 μL of 0.1% formic acid in MeCN by shaking for 10 min (IKA Vibrax VXR, IKA Werke GmbH & Co. KG, Staufen im Breisgau, Germany) and centrifuged for 5 min at the speed of 8000g (Eppendorf miniSpin centrifuge) after isotope-labeled GABA-d6 and glutamate-d5 (Toronto Research Chemicals Inc., Toronto, ON, Canada) were added as internal standards (10 μL at the concentration of 500 ng/mL). The autosampler vials were filled with the acquired supernatants. […]

CC(=O)N[C@@H](C(=O)N1CCN(c2cccc(OC(F)(F)F)c2)CC1)c1ccccc1 [(R)-32, (R)-N-(2-Oxo-1-phenyl-2-(4-(3-(trifluoromethoxy)phenyl)piperazin-1-yl)ethyl)acetamide]
effect on RED parameters (duration, frequency, amplitude) [1]: failed to significantly affect
GABA concentration in the cortex ([2]; 80 mg/kg, p < 0.001 vs PTZ-kindled control group): significantly decreased
glutamate concentration in the cortex (PTZ-kindling-induced decrease) ([2]; 80 mg/kg, p < 0.01 vs PTZ-kindled control group): reversed this effect
glutamate concentration in the hippocampus ([2]; vs nonkindled FST control group): slight decrease
